US20240180849A1, “IMMUNOFUNCTIONAL CARRIER, METHODS OF USES, AND COMPOSITION MATTERS AS AN ANTITUMOR IMMUNOTHERAPY” (priority 2021, published 2024)
Blank lines part the entries; values can stand above or below the compound they belong to.

What was measured:
splenocytes = experiment: Cytotoxicity, propidium iodide staining; type: cell-based, mouse; conditions: at ≤PTX 2 μg/mL (and 2E′ 10 μg/mL)
Description: The spleen was collected from healthy or tumor-bearing mice to isolate splenocytes. The collected spleens were cut into pieces and filtered through 70 μm and 40 μm cell strainers sequentially to obtain a single-cell suspension. The cell suspension was incubated with 1 mL ammonium-chloride-potassium (ACK) lysis buffer for 3 min to remove red blood cells.

BMDCs = experiment: Cytotoxicity, propidium iodide staining; type: cell-based, mouse; conditions: at ≤PTX 2 μg/mL (and 2E′ 10 μg/mL)
Description: (§1) Bone marrow-derived dendritic cells (BMDCs) and bone marrow-derived macrophages (BMDMs) were differentiated from mouse bone marrow cells. The bone marrow was collected from the femur of female Balb/c or male C57BL/6 mice (7 weeks old), pipetted several times, and passed through a 100 and 40 μm cell strainer to obtain single-cell suspension. The cells were collected by centrifugation at 500 ref for 8 min, treated with ACK lysis buffer, rinsed, and cultured in Alpha minimum essential medium (MEM-Alpha, ribonucleosides, deoxyribonucleosides, 4 mM L-glutamine, 1 mM sodium pyruvate) supplemented with 100 units/mL penicillin, 100 μg/mL streptomycin, […] β-mercaptoethanol, 20 ng/ml murine GM-CSF and 20% fetal bovine serum. After 7 days, floating or loosely adherent cells were collected by centrifugation and identified as BMDC by APC anti-mouse CD11c antibody labeling. Adherent cells were identified as BMDM by FITC anti-mouse F4/80 antibody labeling.

[1] = tested on: DCs or BMDMs co-cultured with CT26 or B16F10 cells; conditions: PTX-pretreated CT26 or B16F10 cells, with 7 μg/mL 2E′
Description: CT26 or B16F10 cancer cells were stained with Cell Tracker Green (Invitrogen, Carlsbad, CA) for 1 h and treated with 5 μg/mL PTX for 24 h. […] The co-cultured cells were collected, resuspended in staining buffer, and analyzed by the BD Accuri C6 Flow Cytometer or BD LSRFortessa Flow Cytometer (San Jose, CA, USA). DCs taking up the PTX-treated cancer cells (cancer cell^+ DC or macrophages) was quantified as the percentage of double-positive cells in Cell-Tracker Deep Red-stained BMDC, JAWSII DC or BMDM, and the phagocytized cancer cells as the percentage of double-positive cells in Cell Tracker Green-stained cancer cells.

B16F10 cells = conditions: 24 h incubation
Description: CT26 cells, B16F10 cells, BMDC, or splenocytes were seeded in a 96 well plate at a density of 8,000 cells per well (CT26, B16F10) or 15,000 cells per well (BMBCs, splenocytes). After 24 h incubation, the cell culture medium was replaced with fresh complete medium containing 2E, PEI, 2E′/PTX or 2E′/PTX/siPD-L1 treatments in different concentrations. After incubation for another 24 h, the cell cytotoxicity was measured by the MTT assay (CT26, B16F10) or propidium iodide (PI) staining (BMDC, splenocytes). For the MTT assay, the treatments were replaced with 100 μL of fresh complete medium and 15 μL of 5 mg/mL MTT solution. After 4 h incubation, 100 μL of stop/solubilization solution was added to the cells and incubated overnight. The absorbance of dissolved formazan was read by the SpectraMax M3 microplate reader (Molecular Devices, Sunnyvale, CA) at 560 nm. For PI staining, the treatments were removed and cells were rinsed with PBS, collected, and resuspended in 100 μL of cell staining buffer. Five microliters (40 ng) of PI staining solution was added to each sample immediately before the analysis by the BD Accuri C6 Flow Cytometer. The combination index (CI) was determined by Compusyn (Combosyn, Inc., Paramus, NJ). The values of CI<1, CI=1, and CI>1 represent synergy, additivity, and antagonism, respectively^53.

BMDCs and JAWSII DCs = experiment: BMDC and JAWSII DC stimulation (maturation markers, flow cytometry); type: cell-based, mouse
CT26 tumors [2] = experiment: Antitumor effects in Balb/c mice with bilateral CT26 tumors; type: in vivo; conditions: single IT injection, 1 mg 2E′ (+0.2 mg PTX) per mouse
Description: Tumors were established in both flanks simultaneously by subcutaneous inoculation. 1×10^6 of CT26 cells were innoculated in the flank of the right hind limb, and 3×10^5 of CT26 cells in the left flank of the same mouse. […] The sizes of the treated tumor and the non-treated tumor on the left side were measured with a digital caliper every other day, and tumor volumes were calculated as (width^2×length)/2.

TLR-4 = target: T1, TLR-4 (Homo sapiens, UniProt O00206); experiment: TLR-4 activation assay, THP1-XBlue-MD2-CD14 reporter cells (SEAP); type: cell-based; conditions: at comparable concentrations
T1 construct: host or cells: THP1-XBlue-MD2-CD14 cells
T1 sequence (O00206 24-839): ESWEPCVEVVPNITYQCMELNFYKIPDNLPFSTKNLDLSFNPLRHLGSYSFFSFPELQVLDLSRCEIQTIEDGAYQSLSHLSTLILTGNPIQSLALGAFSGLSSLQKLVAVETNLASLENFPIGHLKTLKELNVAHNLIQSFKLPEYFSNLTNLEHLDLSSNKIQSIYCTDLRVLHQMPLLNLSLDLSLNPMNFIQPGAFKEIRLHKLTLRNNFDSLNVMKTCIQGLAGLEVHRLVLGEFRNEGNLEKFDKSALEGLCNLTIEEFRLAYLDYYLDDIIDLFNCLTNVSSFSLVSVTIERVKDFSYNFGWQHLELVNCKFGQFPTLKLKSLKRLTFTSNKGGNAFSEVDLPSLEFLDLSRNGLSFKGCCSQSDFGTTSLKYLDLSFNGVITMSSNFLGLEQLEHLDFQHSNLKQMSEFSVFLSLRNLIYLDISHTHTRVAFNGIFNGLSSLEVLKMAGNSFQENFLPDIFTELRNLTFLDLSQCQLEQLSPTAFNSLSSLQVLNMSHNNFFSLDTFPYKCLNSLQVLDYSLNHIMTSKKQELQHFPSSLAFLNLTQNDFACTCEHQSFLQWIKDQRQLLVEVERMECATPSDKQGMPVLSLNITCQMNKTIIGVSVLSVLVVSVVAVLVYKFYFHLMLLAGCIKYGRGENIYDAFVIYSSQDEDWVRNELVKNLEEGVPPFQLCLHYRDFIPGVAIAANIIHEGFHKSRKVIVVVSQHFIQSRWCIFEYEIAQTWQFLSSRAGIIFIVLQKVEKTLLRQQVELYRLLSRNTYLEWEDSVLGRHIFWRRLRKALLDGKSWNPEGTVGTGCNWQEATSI
T1 sequence (Q9Y6Y9 17-160 partner limits assumed): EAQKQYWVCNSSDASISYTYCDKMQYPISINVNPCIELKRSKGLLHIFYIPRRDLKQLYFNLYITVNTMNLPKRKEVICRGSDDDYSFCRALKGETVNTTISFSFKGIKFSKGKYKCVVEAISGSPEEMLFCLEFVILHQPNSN
Description: (§2) TLR-5 activation was tested with HEK-Blue™ mTLR5 Cells, TLR-5 reporter cells (Invitrogen, Carlsbad, CA). The TLR-4 reporter cells were plated in a 96 well plate at a density of 100,000 cells per well in RPMI medium. The TLR-5 reporter cells were plated in a 96 well plate with a density of 25,000 cells per well in HEK-Blue™ Detection medium. […] The supernatant was collected for secreted embryonic alkaline phosphatase (SEAP) assay. The absorbance of SEAP was measured at 620 nm.

TLR-5 = target: T2, TLR-5 (Mus musculus, UniProt Q9JLF7); experiment: TLR-5 activation assay, HEK-Blue mTLR5 reporter cells (SEAP); type: cell-based; conditions: TLR reporter cell line, colorimetric SEAP
T2 construct: host or cells: HEK-Blue mTLR5 cells
T2 sequence (Q9JLF7 27-859): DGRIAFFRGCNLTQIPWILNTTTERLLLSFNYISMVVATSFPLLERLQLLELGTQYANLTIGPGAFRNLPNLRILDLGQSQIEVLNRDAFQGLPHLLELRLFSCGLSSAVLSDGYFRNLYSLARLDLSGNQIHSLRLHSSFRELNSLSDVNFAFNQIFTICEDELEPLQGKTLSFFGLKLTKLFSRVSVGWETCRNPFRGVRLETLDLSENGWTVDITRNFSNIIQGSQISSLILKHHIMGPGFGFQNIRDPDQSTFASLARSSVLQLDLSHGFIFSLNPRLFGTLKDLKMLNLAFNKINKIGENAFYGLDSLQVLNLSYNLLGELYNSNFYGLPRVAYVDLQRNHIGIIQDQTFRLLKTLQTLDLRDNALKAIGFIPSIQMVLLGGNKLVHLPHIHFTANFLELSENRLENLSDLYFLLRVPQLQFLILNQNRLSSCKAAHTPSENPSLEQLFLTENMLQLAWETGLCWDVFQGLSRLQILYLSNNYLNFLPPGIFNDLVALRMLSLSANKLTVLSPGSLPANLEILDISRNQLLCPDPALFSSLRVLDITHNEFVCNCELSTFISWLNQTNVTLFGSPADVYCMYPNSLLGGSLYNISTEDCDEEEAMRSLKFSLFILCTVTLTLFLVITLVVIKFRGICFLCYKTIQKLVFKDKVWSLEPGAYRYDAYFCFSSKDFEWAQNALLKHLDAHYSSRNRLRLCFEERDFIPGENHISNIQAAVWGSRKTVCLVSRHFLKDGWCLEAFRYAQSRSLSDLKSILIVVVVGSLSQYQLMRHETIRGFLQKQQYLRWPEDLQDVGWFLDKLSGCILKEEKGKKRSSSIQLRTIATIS
Description: as §2

CT26 and B16F10 cells = experiment: CRT expression in tumor cells; type: cell-based, mouse
Description: 2×10^5 CT26 or B16F10 cells were seeded in a 6-well plate overnight. […] After 6 h or 24 h, the cells were collected, resuspended in staining buffer, incubated with anti-mouse CD16/32 antibody to block non-specific binding of the immunoglobulin to Fc receptors, and stained with Alexa Fluor 488-conjugated anti-CRT monoclonal antibody (ab196158, Abcam). The cells were incubated with 0.5 μg/mL propodium iodide for 1 min prior to the analysis with the BD Accuri C6 Flow Cytometer. For visualizing CRT exposure, 2×10^5 CT26 or B16F10 cells were seeded in a confocal dish, incubated with different treatments for 24 h, washed, stained in the same manner as above, and fixed with 4% paraformaldehyde. Confocal images of the fixed cells were taken with the Nikon A1R confocal microscope (Nikon America Inc., Melville, NY) after brief staining with 2 μg/mL Hoechst 33342.

BMDCs and BMDMs = experiment: Cytokine production from BMDC and BMDM (ELISA); type: cell-based, mouse; conditions: 24 h
Description: as §1
After 24 h incubation, the cells were collected, resuspended in staining buffer, incubated with Fc-blocking antibody for 15 min at 4° C., labeled with anti-mouse CD11c, CD86, CD40, and MHC-II antibodies for 20 min at 4° C., and analyzed by the BD Accuri C6 Flow Cytometer. […] After 24 h, the media were analyzed for IL-1β and TNF-α by ELISA (Invitrogen, Carlsbad, CA) according to the manufacturer's protocols.

CT26 cells = experiment: Cytotoxicity, MTT assay; type: cell-based, mouse
Description: CT26 cells, B16F10 cells, BMDC, or splenocytes were seeded in a 96 well plate at a density of 8,000 cells per well (CT26, B16F10) or 15,000 cells per well (BMBCs, splenocytes). […] After incubation for another 24 h, the cell cytotoxicity was measured by the MTT assay (CT26, B16F10) or propidium iodide (PI) staining (BMDC, splenocytes). […] The values of CI<1, CI=1, and CI>1 represent synergy, additivity, and antagonism, respectively^53.

CT26 tumors [3] = experiment: Antitumor effects in Balb/c mice with CT26 tumors and delayed rechallenge(s) of live cells; type: in vivo
Source text: Tumor growth was monitored as described above. To test whether antitumor immunity was established, the mice surviving with complete tumor remission by 30 days from the treatment were rechallenged with 1×10^5 live CT26 cells on the contralateral flank. The mice resistant to the first rechallenge were challenged again with 2×10^6 live CT26 cells on 60 days from the treatment. In two separate experiments, surviving Balb/c mice were rechallenged once on 6 or 17 days after the treatment.

Compound: CC(=O)O[C@H]1C(=O)[C@@]2(C)[C@H]([C@H](OC(=O)c3ccccc3)[C@]3(O)C[C@H](OC(=O)[C@H](O)[C@@H](NC(=O)c4ccccc4)c4ccccc4)C(C)=C1C3(C)C)[C@]1(OC(C)=O)CO[C@@H]1C[C@@H]2O [PTX, paclitaxel]
- cytotoxicity to splenocytes (splenocytes): did not show significant cytotoxicity
- cytotoxicity to BMDCs (BMDCs): did not show significant cytotoxicity

- TLR-5 signaling (TLR-5): activated TLR-5 signaling
Compound: Polyethyleneimine-Lithocholic Acid Conjugate [2E′]
- fractions of DCs or BMDMs taking up cancer cells and of cancer cells taken up [1]: substantially increased
- toxicity to B16F10 cells relative to BMDCs (B16F10 cells): more toxic to CT26 and B16F10 cells than to bone marrow-derived DCs
- maturation of DCs (BMDCs and JAWSII DCs; BMDCs, JAWSII DCs, 24 h): induced the maturation of BMDCs and JAWSII DCs
- immunostimulatory responses relative to PEI (BMDCs and JAWSII DCs; all tests: DC maturation, TNF-α/IL-1β, TLR-5, CRT): induced greater responses than PEI
- growth of untreated distant tumors vs D5W (CT26 tumors [2]): the difference was insignificant
- mice with complete regression (CR) of the treated tumors (CT26 tumors [2]): 60%
- TLR-4 signaling (TLR-4): Neither 2E′ nor PEI activated TLR-4 signaling
- cell surface calreticulin (CRT) exposure (CT26 and B16F10 cells): exposed the cell surface calreticulin (CRT)
- TNF-α and IL-1β production/secretion (BMDCs and BMDMs): promoted the production
- toxicity to CT26 cells relative to normal splenocytes (CT26 cells): greater toxicity to CT26 cells than normal splenocytes
- toxicity to CT26 cells relative to BMDCs (CT26 cells; 24 h incubation): more toxic to CT26 and B16F10 cells than to bone marrow-derived DCs
- mice with CR (tumor-free) (CT26 tumors [3]; 1 mg 2E′, 0.2 mg/mL PTX, 0.67 mg siRNA, single IT, n=8): 50%
- animals with CR of the treated tumors (CT26 tumors [3]; 1.4 mg 2E′ (+0.2 mg PTX) per mouse, single IT): 40%
- tumor-free mice in which growth of rechallenged tumor was prevented (CT26 tumors [3]; 1.4 mg 2E′ (+0.2 mg PTX), rechallenge with live CT26 cells day 17): one of the two
- mice with growth of primary tumors inhibited (CT26 tumors [3]; 2.7 mg 2E′ (+0.4 mg PTX) per mouse, single IT): 57%
- mice with no tumor growth of untreated distant tumor (CT26 tumors [3]; 2.7 mg 2E′ (+0.4 mg PTX), distant tumor inoculated 6 days after treatment): 57%
- tumor growth after second rechallenge (CT26 tumors [3]; 2×10^6 live CT26 cells): exponential tumor growth in 10-15 days after the second challenge
